# Source: US20260053931A1, “MDM2 TARGETING PROTACS” (THE WISTAR INSTITUTE OF ANATOMY AND BIOLOGY, priority 2023, published 2026)
# Like-named read-outs stand apart in the source and are kept apart here.
# Experiments:
# Mdm2 [1] = molecular target: T1, Mdm2 (Homo sapiens, UniProt Q00987); assay: Mdm2 HTRF binding assay (Table 2)
# Source text: An HTRF binding assay was developed using a biotinylated peptide containing the Mdm2-binding domain of p53 and a recombinant GST-tagged N-terminus of Mdm2 containing the p53-binding domain. HTRF is a proximity-based fluorescence energy transfer (FRET) assay that takes advantage of the unique time-resolved fluorescence of the lanthanide chelates, such as terbium and europium. HTRF IC50 values are provided for all key compounds (FIG. 13C, FIG. 19B, and Table 2).
# Target sequence in this assay (Q00987 26-109 limits assumed): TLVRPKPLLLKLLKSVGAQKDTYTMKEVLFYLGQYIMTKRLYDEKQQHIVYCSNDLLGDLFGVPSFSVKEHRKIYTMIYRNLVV
# [2] = test system: Mdm2-/-p53-/- sarcoma cells; assay: Murine Mdm2-/-p53-/- sarcoma cells, MTT; format: cell-based, mouse; conditions: MTT assay, 48 hrs
# Source text: A-B. Murine Mdm2+/+p53-null sarcoma cells treated with Mdm2 PROTAC (YX-02-030), control YX-02-023 (−), or vehicle (DMSO). A. Western blots after 24 hrs (cleaved caspase 3, CC3. Mdm2^−/−p53^−/− fibroblasts were a control for the Western blot). B. Dose response curve (MTT assay, 48 hrs). C. Dose response curves of murine Mdm2^−/−p53^−/− sarcoma cells treated with Mdm2 PROTAC (YX-02-030), negative controls (−), a Bcl2/Bclx/Bclw inhibitor (+), or vehicle control (MTT assay, quadruplicate, 48 hrs- MTT assay, B-C graphed relative to DMSO).
# [3] = test system: MDA-MB-231 and MDA-MB-436 cells; assay: Colony formation assay; format: cell-based, human; parameters: unit of the concentration uncertain; conditions: 12 days
# Method: (§1) FIGS. 21A-21E show the apoptosis induction of p53-inactivated TNBC cells in 2D and 3D cultures by the MDM2-PROTAC YX-02-030. A-B. Colony formation assays (A. Triplicate, 12 days) and mammosphere formation (B. Triplicate 72 hrs) of MDA-MB-231 and MDA-MB-436 cells in the presence of the indicated compounds or DMSO control (−); representative pictures shown. C-E. Formed mammospheres of MDA-MB-231 and MDA-MB-436 cells were treated with the compounds indicated or DMSO control (−), and area (C. n=10 mammospheres, relative to pre-treatment area, 72 hr), real-time imaging (IncuCyte) and quantification of Caspase-3/7 activity (D. n=4-5 wells/compound), and survival/ATP assays (E. Quadruplicate, 72 hr) were performed; representative images shown; scale bar 300 m. Mean±SEM (A-C and E). For A, *P<0.0001 and **P<0.0001, comparing 1 M and 2 M PROTAC, respectively, to control compounds and DMSO vehicle control. For B, *P<0.0046, **P<0.0001, and ***P<0.0001, comparing 0.5 M, 1 M, and 2 M PROTAC, respectively, to control compounds and DMSO vehicle control. For C, *P<0.0001 and **P<0.0001, comparing 2 M and 4 M/6 M PROTAC, respectively, to control compounds and DMSO vehicle control. […]
# The ability of the PROTAC-mediated degradation of MDM2 to alter the clonogenic potential of p53-inactivated TNBC cells was evaluated by performing colony formation assays with MDA-MB-231 and MDA-MB-436 cells. […]
# Mdm2 [4] = molecular target: T1, Mdm2; assay: In-Cell Western, mut p53 MDA-MB-231 cell line; format: cell-based; parameters: endogenous in cells; host or cells: MCF7 (A8); MDA-MB-231 (A9); conditions: mutant p53 MDA-MB-231
# Method: Cells were seeded at decreasing cell number from 15K cells to 2K cells. The Mdm2 primary antibody was tested at 1:200 and 1:300 dilution. The secondary antibody conjugated to IRDye800CW was used with 1:800 dilution, and CellTag 700 Stain was used at 1:1000 dilution as manufacture recommended. The linearity of cell number versus signal was generated with Prism. The signal over background ratio was also calculated.
# The potential PROTACs were evaluated in the wt p53 MCF7 cell line and in the mut p53 MDA-MB-231 cell line. Importantly these were compared to MD-224, which was recently reported to potently degrade Mdm2 in RS4; 11 leukemia cells (Li et al., 2019). Assay linearity was performed confirming a strong 4-fold signal to noise in the assay. A series of bi-functional molecules were then treated and evaluated for protein level in the assay over time from 2 h-48 h. […] In this wt p53 cancer cell line the stabilization of p53 (FIG. 15B), and subsequent p53-mediated transcriptional upregulation of Mdm2 make it difficult to observe degradation. […] These compounds were evaluated in the mutant p53 cancer cells. […] In this cell line, it takes approximately 16-24 h to detect the degradation. […] The difference in the molecules is that MD-224 utilizes a CRBN recruiting ligand.
# Target sequence in this assay (Q00987 whole entry, the tested form may be a part): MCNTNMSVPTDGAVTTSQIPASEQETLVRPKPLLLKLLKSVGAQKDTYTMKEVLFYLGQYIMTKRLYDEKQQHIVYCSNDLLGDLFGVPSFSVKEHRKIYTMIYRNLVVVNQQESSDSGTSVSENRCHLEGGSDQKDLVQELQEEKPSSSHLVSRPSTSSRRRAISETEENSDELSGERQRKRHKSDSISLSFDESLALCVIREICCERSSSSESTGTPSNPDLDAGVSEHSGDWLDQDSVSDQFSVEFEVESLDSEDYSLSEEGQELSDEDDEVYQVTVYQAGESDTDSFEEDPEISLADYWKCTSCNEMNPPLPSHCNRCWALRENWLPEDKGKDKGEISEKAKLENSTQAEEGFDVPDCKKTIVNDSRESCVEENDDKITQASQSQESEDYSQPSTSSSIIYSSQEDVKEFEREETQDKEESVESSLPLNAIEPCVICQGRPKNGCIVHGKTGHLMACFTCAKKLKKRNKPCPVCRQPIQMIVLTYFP
# Hut-78 = assay: Cell death of other cancer cell lines: Hut-78; format: cell-based; conditions: Homo sapiens, HuT78; Hut-78, T cell lymphoma
# Method: The PROTACs prepared herein were tested for their use in other cancer cell lines to determine activity in multiple different types of cancer.
# [5] = test system: MDA-MB-231 and MDA-MB-436 cells; assay: Mammosphere formation in 3D culture; format: cell-based, human; conditions: each concentration tested, 72 hrs, compared to MDM2 inhibitors and vehicle
# Method: as §1
# These were then evaluated in 3D culture as to when the YX-02-030 was effective at preventing TNBC cell mammosphere formation and eliminating already formed mammospheres. […]
SMILES,IC50 (Mdm2 [1]),response of Mdm2-/-p53-/- sarcoma cells [2],colony numbers ([3]; 1 (unit uncertain)),colonies formed ([3]; 2 (unit uncertain)),Mdm2 degradation (Mdm2 [4]),IC50 (Hut-78),mammosphere formation [5],IC50 (Mdm2 [1]; read-out: Mdm2 HTRF IC50)
CCOc1cc(C(C)(C)C)ccc1C1=N[C@](C)(c2ccc(Cl)cc2)[C@](C)(c2ccc(Cl)cc2)N1C(=O)N1CCN(CC(=O)NCCOCCOCCOCC(=O)N[C@H](C(=O)N2C[C@H](O)C[C@H]2C(=O)NCc2ccc(-c3scnc3C)cc2)C(C)(C)C)CC1 (racemic) [YX-02-030],0.014 µM,not responsive,significant reduction in colony numbers,< 2 colonies,degrade Mdm2,9 µM,significantly fewer mammospheres formed,
"CCOc1cc(C(C)(C)C)ccc1C1=N[C@](C)(c2ccc(Cl)cc2)[C@](C)(c2ccc(Cl)cc2)N1C(=O)N1CCN(CC(=O)NCCCNC(=O)COc2ccc3c(c2)CN(C(=O)[C@H](NC(=O)[C@@H](C)NC)C(C)(C)C)[C@@H](C(=O)N[C@H]2CCCc4ccccc42)C3)CC1 [YX-02-228, (R)-7-(2-((3-(2-(4-((4R,5S)-2-(4-(tert-butyl)-2-ethoxyphenyl)-4,5-bis(4-chlorophenyl)-4,5-dimethyl-4,5-dihydro-1H-imidazole-1-carbonyl)piperazin-1-yl)acetamido)propyl)amino)-2-oxoethoxy)-2-((R)-3,3-dimethyl-2-((R)-2-(methylamino)propanamido)butanoyl)-N-((S)-1,2,3,4-tetrahydronaphthalen-1-yl)-1,2,3,4-tetrahydroisoquinoline-3-carboxamide]",,,,,degrade Mdm2,8.8 µM,,0.013 µM
